Measured values taken from EP0119450A1, “Preparation of aminopyrazolines and intermediates used therein” (THE WELLCOME FOUNDATION LIMITED, priority 1983, dated 1984).

Assays:
[1] = Storage stability at normal room temperature in sealed containers, analysed by T.l.c.; format: physicochemical; conditions: freshly prepared samples, T.l.c. at regular intervals
Excerpt: Freshly prepared samples of the compound of Example 29/30B and the compound 2B (the latter also being disclosed in European Specification 55 418) were stored separately at normal room temperature in sealed containers and analysed at regular intervals by T.l.c.

Cyclooxygenase = test: Enzyme assay, inhibition of cyclooxygenase (method based on Borgeat et al); format: biochemical
Lipoxygenase = test: Enzyme assay, inhibition of lipoxygenase (method based on Borgeat et al); format: biochemical
Prostaglandin E2 = test: Prostaglandin synthesis in carrageenin sponge exudates; format: in vivo; conditions: Rattus norvegicus, po; male rats, carrageenin sponge exudate collected at 24 hours; read-out: ED50 Prostaglandin Production (rat)
Method: (§1) The compound of Example 29/3UB was subjected to the following tests. Results are given in Table II as ED50 mg/kg upon oral administration.
(§2) Inflammatory exudates were collected 24 hours after the subcutaneous implantation in male rats (180-220g) of sterile polyester sponges impregnated with 2% carrageenin. Prostaglandin E2 concentrations in sponge exudates were measured by bioassay and total leucocyte numbers were estimated using counting chambers and phase contrast microscopy. Drugs were administered orally in aqueous solution to groups of five animals at the time of sponge implantation, 5-8 hours later and 3 hours before sponge removal. Results are expressed as a percentage of control values obtained from similar groups of animals receiving vehicle alone. ED50 values were calculated for active compounds. The full dose-response data for lead compounds were subjected to regression analysis and ED50 values with 95% confidence limits were obtained.

total leucocyte numbers = test: Leucocyte accumulation in carrageenin sponge exudates; format: in vivo; conditions: Rattus norvegicus, po, male rats, carrageenin sponge exudate collected at 24 hours
Method: as §1, §2

female rats = test: Carrageenin-induced paw oedema; format: in vivo; conditions: Rattus norvegicus, po, swelling measured 1-4 hours after carrageenin
Method: as §1
Oedema was induced by the sub-plantar injection of 2% carrageenin (0.1 ml) in the hind paws of female rats (100-130g). Swelling was measured 1-4 hours following carrageenin injection using a micrometer gauge. Drugs in aqueous solution were administered orally to groups of five rats at the time of carrageenin injection. Mean swelling was expressed as a percentage of control values obtained from similar groups of animals receiving vehicle alone.

female mice = test: Phenylbenzoquinone (PBQ) induced writhing; format: in vivo; conditions: Mus musculus, po, p.o. 1 hour before PBQ 2.5 mg/kg i.p.
Method: as §1
Writhing was induced in groups of 5 female mice (20-25g) following the intraperitoneal injection of phenylbenzoquinone (PBQ; 2.5 mg/kg). Anti- nociceptive effects of drugs were assessed by observing the reduction in writhing responses 10-12½ min after PBQ injection. Drugs were administered orally in aqueous solution 1 hour before PBQ injection and drug effects were expressed as a percentage of control values obtained from animals receiving vehicle alone.

SMILES	IC50 (Cyclooxygenase) [µM]	IC50 (Lipoxygenase) [µM]	also measured
CC(=O)N(C)C1=NN(c2cccc(C(F)(F)F)c2)CC1 [29&30B, N-methyl-N-[1-(3-trifluoromethylphenyl)-2-pyrazolin-3-yl] acetamide]	1	1	decomposition on storage [1]: no significant decomposition, 2 years from the outset of the Experiment; ED50 (Prostaglandin E2): 35 mg/kg; ED50 (total leucocyte numbers): 57 mg/kg; ED50 (female rats): 15 mg/kg; ED50 (female mice): 45 mg/kg
O=CN(CC=CCCl)C1=NN(c2cccc(C(F)(F)F)c2)CC1 [Example 34]	10	3	
O=CN(CC1CC1)C1=NN(c2cccc(C(F)(F)F)c2)CC1 [Example 8A, N-(cyclopropylmethyl)-N-[1-(3-trifluoromethylphenyl)-2-pyrazolin-3-yl]formamide]	8	2	
O=CN(Cc1ccc(F)cc1)C1=NN(c2ccc(Br)c(C(F)(F)F)c2)CC1 [Example 18B, N-[1-(4-bromo-3-trifluoromethylphenyl)-2-pyrazolin-3-yl]-N-(4-fluorobenzyl)formamide]	2	5	
O=CN(CC=Cc1ccccc1)C1=NN(c2cccc(C(F)(F)F)c2)CC1 [Example 9A, N-(cinnamyl)-N-[1-(3-trifluoromethylphenyl)-2-pyrazolin-3-yl]formamide]	2	1.5	
CCCN(C=O)C1=NN(c2cccc(C(F)(F)F)c2)CC1 [Example 5A, N-(n-propyl)-N-[1-(3-trifluoromethylphenyl)-2-pyrazolin-3-yl]-formamide]	10	1	
C=CCN(C=O)C1=NN(c2cccc(C(F)(F)F)c2)CC1 [Example 3A, N-(2-propenyl)-N-[1-(3-trifluoromethylphenyl)-2-pyrazolin-3-yl]formamide]	5	2	
CNC1=NN(c2cccc(C(F)(F)F)c2)CC1 [Example 2B, 3-methylamino-1-(3-trifluoromethylphenyl)-2-pyrazoline]			decomposition on storage [1]: significant decomposition after six months
CC(=O)N(C)C1=NN(c2ccc(Br)c(C(F)(F)F)c2)CC1 [Example 45, N-methyl-N-[1-(4-bromo-3-trifluoromethylphenyl)-2-pyrazolin-3-yl]acetamide]	1	1	
CCC(=O)N(C)C1=NN(c2cccc(C(F)(F)F)c2)CC1 [Example 32, N-methyl-N-[1-(3-trifluoromethylphenyl)-2-pyrazolin-3-yl]propionamide]	> 10	1	
C#CCN(C=O)C1=NN(c2cccc(C(F)(F)F)c2)CC1 [Example 4A, N-(2-propynyl)-N-[1-(3-trifluoromethylphenyl)-2-pyrazolin-3-yl]formamide]	3	0.5	
